{"source": "ChEMBL document CHEMBL5257032", "about": "“Therapeutic potential of coumarins as antiviral agents” (Eur J Med Chem, 2016)", "key": {"[1]": {"tested_on": "Human alphaherpesvirus 1", "test": "Antiviral activity against Herpes simplex virus 1", "format": "functional, organism-based"}, "[2]": {"tested_on": "Human alphaherpesvirus 1", "test": "Antiviral activity against Herpes simplex virus 1 assessed as inhibition rate at 10 ug/ml relative to control", "format": "functional"}, "[3]": {"tested_on": "Human alphaherpesvirus 1", "test": "Antiviral activity against Herpes simplex virus 1 assessed as inhibition rate at 5 ug/ml relative to control", "format": "functional"}, "[4]": {"tested_on": "Human alphaherpesvirus 1", "test": "Antiviral activity against Herpes simplex virus 1 assessed as inhibition rate at 2.5 ug/ml relative to control", "format": "functional"}, "[5]": {"test": "Inhibition of HIV1 integrase", "parameters": "species or system Human immunodeficiency virus 1"}, "[6]": {"test": "Binding affinity to HIV protease assessed as inhibition constant", "parameters": "species or system Human immunodeficiency virus"}, "[7]": {"tested_on": "Human immunodeficiency virus", "test": "Antiviral activity against HIV", "format": "functional, organism-based", "conditions": "Human immunodeficiency virus 1"}, "[8]": {"test": "Half life in dog", "format": "ADME, Canis lupus familiaris", "conditions": "in vivo"}, "[9]": {"tested_on": "Hepatitis C virus", "test": "Antiviral activity against HCV subtype 1b in Huh-5-2 cells", "format": "functional, organism-based, Hepacivirus hominis"}, "[10]": {"target": "Human immunodeficiency virus type 1 protease (Human immunodeficiency virus 1, UniProt Q72874)", "test": "Inhibition of HIV-1 protease"}, "[11]": {"target": "Human immunodeficiency virus type 1 protease (Human immunodeficiency virus 1) (UniProt Q72874)", "test": "Inhibition of HIV-1 protease relative to control", "conditions": "concentration not given here"}, "[12]": {"test": "Antiviral activity against HIV-1 infected in human MT4 cells assessed as cell survival relative to control", "format": "functional, Human immunodeficiency virus 1"}, "[13]": {"tested_on": "Hepatitis C virus", "test": "Antiviral activity against HCV assessed as inhibition of RNA replication", "format": "functional, organism-based, Hepacivirus hominis"}, "[14]": {"tested_on": "Hepatitis C virus", "test": "Antiviral activity against HCV assessed as inhibition of HCV RNA replication at 5.0 uM relative to control", "format": "functional, Hepacivirus hominis", "parameters": "scale not given: the % may be the effect or the level left"}, "[15]": {"tested_on": "Herpesviridae sp.", "test": "Antiviral activity against Kaposi's sarcoma-associated herpesvirus", "format": "functional, organism-based"}, "[16]": {"tested_on": "H9", "test": "Cytotoxicity against human H9 cells", "format": "functional, cell-based"}, "[17]": {"tested_on": "Human immunodeficiency virus", "test": "Antiviral activity against HIV infected in human H9 cells", "format": "functional, organism-based", "conditions": "Human immunodeficiency virus 1, H9; read-out: EC50"}, "[18]": {"test": "Therapeutic index, ratio of IC50 for cytotoxicity against human H9 cells to EC50 for antiviral activity against HIV infected in H9 cells", "format": "toxicity, cell-based", "conditions": "read-out: Ratio IC50/EC50"}, "[19]": {"tested_on": "Human immunodeficiency virus 1", "test": "Antiviral activity against HIV-1 RTMDR1 infected in human MT4 cells", "format": "functional, organism-based", "conditions": "Human immunodeficiency virus 1, RTMDR1, MT4"}, "[20]": {"tested_on": "Human alphaherpesvirus 1", "test": "Antiviral activity against Herpes simplex virus 1 assessed as reduction in number of plaques at 0.12 mg/ml relative to control", "format": "functional", "parameters": "scale not given: the % may be the effect or the level left"}, "[21]": {"test": "Cytotoxicity against African green monkey Vero cells", "format": "toxicity, cell-based", "conditions": "chlorocebus sabaeus, read-out: CD50 (the source's name)"}, "[22]": {"tested_on": "MT4", "test": "Cytotoxicity against human MT4 cells by MTT assay", "format": "functional", "conditions": "read-out: TD50 (the source's name)"}, "[23]": {"tested_on": "Human immunodeficiency virus 1", "test": "Antiviral activity against HIV-1 IIIB infected in human MT4 cells", "format": "functional, organism-based", "conditions": "Human immunodeficiency virus 1, IIIB"}, "[24]": {"tested_on": "Human alphaherpesvirus 2", "test": "Antiviral activity against Herpes simplex virus 2", "format": "functional, organism-based"}, "[25]": {"tested_on": "Chikungunya virus", "test": "Antiviral activity against CHIKV virus by CHIKV-Rluc assay", "format": "functional, organism-based"}, "[26]": {"tested_on": "Semliki Forest virus", "test": "Antiviral activity against SFV", "format": "functional, organism-based"}, "[27]": {"tested_on": "Chikungunya virus", "test": "Antiviral activity against CHIKV", "format": "functional, organism-based"}, "[28]": {"test": "Selectivity index, ratio of CC50 for cytotoxicity against human Ava5 cells to EC50 for antiviral activity against HCV", "format": "toxicity, cell-based", "conditions": "read-out: Ratio CC50/EC50"}, "[29]": {"tested_on": "Hepatitis B virus", "test": "Antiviral activity against HBV", "format": "functional, organism-based"}}}
{"smiles": "CC(=O)O[C@@H]1CC[C@]2(C)[C@H](CC[C@](C)(O)[C@@H]2COc2ccc3ccc(=O)oc3c2)C1(C)C", "values": [{"measurement": "EC50", "setting": "[1]", "value": 38, "unit": "µg/mL"}, {"measurement": "inhibition at 10 µg/mL", "setting": "[2]", "value": 98, "unit": "%"}, {"measurement": "inhibition at 5 µg/mL", "setting": "[3]", "value": 80, "unit": "%"}, {"measurement": "inhibition at 2.5 µg/mL", "setting": "[4]", "value": 65, "unit": "%"}]}
{"smiles": "COc1ccc(-c2c3c4cc(OC)c(OS(=O)(=O)O)cc4oc(=O)c3n3ccc4cc(OC)c(OC)cc4c23)cc1O", "values": [{"measurement": "IC50", "setting": "[5]", "value": 16000, "unit": "nM"}]}
{"smiles": "N#Cc1ccc(S(=O)(=O)Nc2cccc(C(c3c(O)c4c(oc3=O)CCCCCC4)C3CC3)c2)cc1", "note": "(stereo unspecified)", "values": [{"measurement": "Ki", "setting": "[6]", "value": 0.8, "unit": "nM"}, {"measurement": "IC50", "setting": "[7]", "value": 1500, "unit": "nM"}, {"measurement": "half-life", "setting": "[8]", "value": 6, "unit": "h"}]}
{"smiles": "O=c1oc2ccc(Br)cc2cc1CSc1ncc[nH]1", "values": [{"measurement": "EC50", "setting": "[9]", "value": 5100, "unit": "nM"}]}
{"smiles": "CCOC(=O)C(C(C)=O)C(c1cccc([N+](=O)[O-])c1)c1c(O)c2ccccc2oc1=O", "note": "(stereo unspecified)", "values": [{"measurement": "IC50", "setting": "[10]", "value": 0.01, "unit": "nM"}, {"measurement": "inhibition", "setting": "[11]", "value": 25, "unit": "%"}, {"measurement": "Survival", "setting": "[12]", "value": 78, "unit": "%"}]}
{"smiles": "CC(=O)OC[C@H]1O[C@@H](n2c(SCc3cc4cc(Br)ccc4oc3=O)nc3ccccc32)[C@H](OC(C)=O)[C@@H](OC(C)=O)[C@@H]1OC(C)=O", "values": [{"measurement": "EC50", "setting": "[13]", "value": 4100, "unit": "nM"}, {"measurement": "Activity", "setting": "[14]", "value": 90, "unit": "%"}]}
{"smiles": "C=CC(C)(C)c1cc2cc3c(cc2oc1=O)OC(C(C)(C)OC(C)=O)C3", "note": "(stereo unspecified) [RUTAMARIN]", "values": [{"measurement": "EC50", "setting": "[15]", "value": 1620, "unit": "nM"}]}
{"smiles": "CC(C)=CCOc1c2occc2cc2ccc(=O)oc12", "note": "[PENTOSALEN]", "values": [{"measurement": "IC50", "setting": "[16]", "value": "> 100", "unit": "µg/mL"}, {"measurement": "EC50", "setting": "[17]", "value": "< 0.1", "unit": "µg/mL"}, {"measurement": "selectivity ratio", "setting": "[18]", "value": "> 1000"}]}
{"smiles": "CCc1cc(=O)c2ccc3c(c2o1)[C@@H](OC(=O)[C@@]12CC[C@](C)(C(=O)O1)C2(C)C)[C@@H](OC(=O)C12CCC(C)(C(=O)O1)C2(C)C)C(C)(C)O3", "values": [{"measurement": "EC50", "setting": "[19]", "value": 60, "unit": "nM"}]}
{"smiles": "O=C(COc1cc(=O)oc2ccccc12)NN1C(=O)CSC1c1ccc(Cl)cc1", "note": "(stereo unspecified)", "values": [{"measurement": "Activity", "setting": "[20]", "value": 30, "unit": "%"}, {"measurement": "MIC", "setting": "[1]", "value": 120, "unit": "µg/mL"}, {"measurement": "CC50", "setting": "[21]", "value": 20, "unit": "µg/mL"}]}
{"smiles": "CCC(Cc1ccccc1)c1cc(O)c(C(c2cccc(NC(=O)[C@H](Cc3c[nH]cn3)NC(=O)OC(C)(C)C)c2)C2CC2)c(=O)o1", "note": "(stereo partly specified)", "values": [{"measurement": "CC50", "setting": "[22]", "value": "≥ 30000", "unit": "nM"}, {"measurement": "IC50", "setting": "[23]", "value": 3000, "unit": "nM"}]}
{"smiles": "COC1=CC(=O)c2cc(C)cc(-c3c(OC)cc(OC)c4ccc(=O)oc34)c2C1=O", "values": [{"measurement": "EC50", "setting": "[1]", "value": 10, "unit": "µg/mL"}, {"measurement": "EC50", "setting": "[24]", "value": 10, "unit": "µg/mL"}]}
{"smiles": "CCN(CC)c1ccc2cc(-c3nc4ccccc4n3C)c(=O)oc2c1", "values": [{"measurement": "IC50", "setting": "[25]", "value": 6400, "unit": "nM"}, {"measurement": "IC50", "setting": "[26]", "value": 400, "unit": "nM"}]}
{"smiles": "CCN(CC)c1ccc2cc(C(=O)c3ccsc3)c(=O)oc2c1", "values": [{"measurement": "IC50", "setting": "[27]", "value": 5100, "unit": "nM"}]}
{"smiles": "COc1cc(NCc2cc3ccccc3oc2=O)cc(OC)c1OC", "values": [{"measurement": "selectivity ratio", "setting": "[28]", "value": 10}]}
{"smiles": "COc1c(OC/C=C(\\C)CCC=C(C)C)ccc2ccc(=O)oc12", "note": "[COLLININ]", "values": [{"measurement": "IC50", "setting": "[29]", "value": 17.1, "unit": "µg/mL"}]}
